{
  "source": "patent US6372493B1",
  "about": "“Hormone-secreting cells maintained in long-term culture” (Pacific Biomedical Research, Inc. [Cell Mart, Inc.], priority 1991, dated 2002)",
  "key": {"[1]": {"tested_on": "Human pancreas cell cultures, 55 generations", "test": "Time course of insulin secretion in response to glucose (Example 18)", "format": "cell-based", "experimental": "Human pancreas cell cultures from Example 16 were maintained in continuous culture through 55 generations, at which time they had been in culture for 12 months.\nTwo hours prior to the experiment, the cells were centrifuged at 1070 rpm for 5 minutes and then resuspended in glucose-poor medium consisting of 1 part DMSS plus 6 parts PDM. The cells were incubated in glucose-poor medium (glucose-starved) at a concentration of about 1.5×10^6 cells/ml in 10 ml culture flasks for two hours at 37°.\nThe cells were then centrifuged and resuspended in the experimental medium consisting of one part DMSS and six parts PDM. The glucose concentration in the experimental medium alone was 1.1 mM. To this medium was added glucose in the concentrations shown in Table 12 below, and the cells were incubated for various times."}, "[2]": {"tested_on": "Human pancreas cells at passage generation 47", "test": "Effect of amino acids on glucose stimulated insulin secretion (Example 20)", "format": "cell-based", "conditions": "90 minutes", "experimental": "Human pancreas cells at passage generation 47, were prepared for the experiment as described in Example 17 above. The cells were incubated in 6 parts PDM plus 1 part DMSS medium at a concentration of 10^5 cells/ml, at various concentrations of glucose. Alanine (10 mM) or arginine(20 mM) were added, and the cells were incubated for 90 minutes, at which time samples were collected for assay of insulin content."}, "[3]": {"tested_on": "pancreas cells in long-term culture", "test": "Glucose-stimulated insulin secretion, pancreas cells generation 47, frozen/thawed or not (Example 17)", "format": "cell-based, human", "experimental": "The pancreas cell cultures described in Example 16 were passaged approximately every 3-5 days through generation 47. Passaging was done by placing 0.5-1.0 ml of cell suspension into 10 ml fresh medium in a flask. Each flask was flooded with medical blood gas mixture (supra), sealed, and maintained in an incubator at 37° C. Typically, each flask was flooded with fresh gas every other day. At passage 47, the cells had been in continuous culture for 9.5 months.\nA portion of the pancreas cells at generation 47 were frozen according to the method described in Example 15 using cryopreservative A. The cells were stored frozen for 1 day, after which they were thawed according to the method described in Example 15.\nThe thawed cells and cells from generation 47 which had not been frozen were placed in DMSS medium and centrifuged at 1070 rpm for 5 minutes. The pellets were washed and resuspended in 30 ml of Medium PDM (Dulbecco's salt solution, phosphate buffered, with MgSO4 (no MgCl2), plus 2% BSA Fraction V), final osmolality adjusted to 272 mOsm) at 37°.\nThe cells were incubated 30 minutes at 37°, then centrifuged and resuspended as above. Cell count and viability were determined by Trypan blue exclusion.\nThe cells were then centrifuged and resuspended in a base medium consisting of 3 parts Medium PDM (supra) and 1 part DMSS, as defined in Example 6 above."}},
  "data": [
    {"smiles": "O=C[C@H](O)[C@@H](O)[C@H](O)[C@H](O)CO", "note": "[glucose, D(+)glucose]", "values": [
      {"measurement": "Insulin secreted", "setting": "[1]; 1 mM glucose added, 1 hr", "result": "275 μIU Insulin secreted/1.5 milli"},
      {"measurement": "Insulin secreted", "setting": "[1]; 1 mM glucose added, 2 hr", "result": "363 μIU Insulin secreted/1.5 milli"},
      {"measurement": "Insulin secreted", "setting": "[1]; 1 mM glucose added, 3 hr", "result": "451 μIU Insulin secreted/1.5 milli"},
      {"measurement": "Insulin secreted", "setting": "[1]; 1 mM glucose added, 5 hr", "result": "564 μIU Insulin secreted/1.5 milli"},
      {"measurement": "Insulin secreted", "setting": "[1]; 1 mM glucose added, 7 hr", "result": "582 μIU Insulin secreted/1.5 milli"},
      {"measurement": "Insulin secreted", "setting": "[1]; 1 mM glucose added, 24 hr", "result": "812 μIU Insulin secreted/1.5 milli"},
      {"measurement": "Insulin secreted", "setting": "[1]; 5.6 mM glucose added, 1 hr", "result": "3413 μIU Insulin secreted/1.5 milli"},
      {"measurement": "Insulin secreted", "setting": "[1]; 5.6 mM glucose added, 2 hr", "result": "982 μIU Insulin secreted/1.5 milli"},
      {"measurement": "Insulin secreted", "setting": "[1]; 5.6 mM glucose added, 3 hr", "result": "999 μIU Insulin secreted/1.5 milli"},
      {"measurement": "Insulin secreted", "setting": "[1]; 5.6 mM glucose added, 5 hr", "result": "2383 μIU Insulin secreted/1.5 milli"},
      {"measurement": "Insulin secreted", "setting": "[1]; 5.6 mM glucose added, 7 hr", "result": "2718 μIU Insulin secreted/1.5 milli"},
      {"measurement": "Insulin secreted", "setting": "[1]; 5.6 mM glucose added, 24 hr", "result": "2760 μIU Insulin secreted/1.5 milli"},
      {"measurement": "Insulin secreted", "setting": "[1]; 11.0 mM glucose added, 1 hr", "result": "3376 μIU Insulin secreted/1.5 milli"},
      {"measurement": "Insulin secreted", "setting": "[1]; 11.0 mM glucose added, 2 hr", "result": "1768 μIU Insulin secreted/1.5 milli"},
      {"measurement": "Insulin secreted", "setting": "[1]; 11.0 mM glucose added, 3 hr", "result": "2220 μIU Insulin secreted/1.5 milli"},
      {"measurement": "Insulin secreted", "setting": "[1]; 11.0 mM glucose added, 5 hr", "result": "1184 μIU Insulin secreted/1.5 milli"},
      {"measurement": "Insulin secreted", "setting": "[1]; 11.0 mM glucose added, 7 hr", "result": "3202 μIU Insulin secreted/1.5 milli"},
      {"measurement": "Insulin secreted", "setting": "[1]; 11.0 mM glucose added, 24 hr", "result": "1276 μIU Insulin secreted/1.5 milli"},
      {"measurement": "Insulin secreted", "setting": "[1]; 16.5 mM glucose added, 1 hr", "result": "3716 μIU Insulin secreted/1.5 milli"},
      {"measurement": "Insulin secreted", "setting": "[1]; 16.5 mM glucose added, 2 hr", "result": "2415 μIU Insulin secreted/1.5 milli"},
      {"measurement": "Insulin secreted", "setting": "[1]; 16.5 mM glucose added, 3 hr", "result": "2450 μIU Insulin secreted/1.5 milli"},
      {"measurement": "Insulin secreted", "setting": "[1]; 16.5 mM glucose added, 5 hr", "result": "2589 μIU Insulin secreted/1.5 milli"},
      {"measurement": "Insulin secreted", "setting": "[1]; 16.5 mM glucose added, 7 hr", "result": "4039 μIU Insulin secreted/1.5 milli"},
      {"measurement": "Insulin secreted", "setting": "[1]; 16.5 mM glucose added, 24 hr", "result": "2099 μIU Insulin secreted/1.5 milli"},
      {"measurement": "Insulin secreted", "setting": "[1]; 22 mM glucose added, 1 hr", "result": "2538 μIU Insulin secreted/1.5 milli"},
      {"measurement": "Insulin secreted", "setting": "[1]; 22 mM glucose added, 2 hr", "result": "1845 μIU Insulin secreted/1.5 milli"},
      {"measurement": "Insulin secreted", "setting": "[1]; 22 mM glucose added, 3 hr", "result": "2066 μIU Insulin secreted/1.5 milli"},
      {"measurement": "Insulin secreted", "setting": "[1]; 22 mM glucose added, 5 hr", "result": "1722 μIU Insulin secreted/1.5 milli"},
      {"measurement": "Insulin secreted", "setting": "[1]; 22 mM glucose added, 7 hr", "result": "1320 μIU Insulin secreted/1.5 milli"},
      {"measurement": "Insulin secreted", "setting": "[1]; 22 mM glucose added, 24 hr", "result": "989 μIU Insulin secreted/1.5 milli"},
      {"measurement": "Insulin secreted", "setting": "[1]; 33 mM glucose added, 1 hr", "result": "972 μIU Insulin secreted/1.5 milli"},
      {"measurement": "Insulin secreted", "setting": "[1]; 33 mM glucose added, 2 hr", "result": "345 μIU Insulin secreted/1.5 milli"},
      {"measurement": "Insulin secreted", "setting": "[1]; 33 mM glucose added, 3 hr", "result": "446 μIU Insulin secreted/1.5 milli"},
      {"measurement": "Insulin secreted", "setting": "[1]; 33 mM glucose added, 5 hr", "result": "657 μIU Insulin secreted/1.5 milli"},
      {"measurement": "Insulin secreted", "setting": "[1]; 33 mM glucose added, 7 hr", "result": "1109 μIU Insulin secreted/1.5 milli"},
      {"measurement": "Insulin secreted", "setting": "[1]; 33 mM glucose added, 24 hr", "result": "1073 μIU Insulin secreted/1.5 milli"},
      {"measurement": "glucose concentration of maximal response", "setting": "[1]; glucose-starved cells, 1 to 24 hr", "result": 16.5, "unit": "mM"},
      {"measurement": "insulin secretion, control (glucose alone)", "setting": "[2]; total 1 mM glucose, 10^5 cells/ml", "result": 91},
      {"measurement": "insulin secretion, control (glucose alone)", "setting": "[2]; total 2 mM glucose", "result": 108},
      {"measurement": "insulin secretion, control (glucose alone)", "setting": "[2]; total 6 mM glucose", "result": 112},
      {"measurement": "insulin secretion, control (glucose alone)", "setting": "[2]; total 11 mM glucose", "result": 116},
      {"measurement": "insulin secretion, control (glucose alone)", "setting": "[2]; total 16 mM glucose", "result": 128},
      {"measurement": "insulin secretion, control (glucose alone)", "setting": "[2]; total 22 mM glucose", "result": 115},
      {"measurement": "Insulin secreted", "setting": "[3]; pg 47, glucose total 1 mM, 1.5 or 3 hours", "result": "92 μIU insulin secreted/ml/10,000"},
      {"measurement": "Insulin secreted", "setting": "[3]; pg 47, glucose total 2 mM", "result": "100 μIU insulin secreted/ml/10,000"},
      {"measurement": "Insulin secreted", "setting": "[3]; pg 47, glucose total 6 mM", "result": "111 μIU insulin secreted/ml/10,000"},
      {"measurement": "Insulin secreted", "setting": "[3]; pg 47, glucose total 11 mM", "result": "117 μIU insulin secreted/ml/10,000"},
      {"measurement": "Insulin secreted", "setting": "[3]; pg 47, glucose total 16 mM", "result": "129 μIU insulin secreted/ml/10,000"},
      {"measurement": "Insulin secreted", "setting": "[3]; pg 47, glucose total 21 mM", "result": "116 μIU insulin secreted/ml/10,000"},
      {"measurement": "Insulin secreted", "setting": "[3]; pg47 frozen/thawed, glucose total 1 mM", "result": "99 μIU insulin secreted/ml/10,000"},
      {"measurement": "Insulin secreted", "setting": "[3]; pg47 frozen/thawed, glucose total 2 mM", "result": "105 μIU insulin secreted/ml/10,000"},
      {"measurement": "Insulin secreted", "setting": "[3]; pg47 frozen/thawed, glucose total 6 mM", "result": "114 μIU insulin secreted/ml/10,000"},
      {"measurement": "Insulin secreted", "setting": "[3]; pg47 frozen/thawed, glucose total 11 mM", "result": "128 μIU insulin secreted/ml/10,000"},
      {"measurement": "Insulin secreted", "setting": "[3]; pg47 frozen/thawed, glucose total 16 mM", "result": "125 μIU insulin secreted/ml/10,000"},
      {"measurement": "Insulin secreted", "setting": "[3]; pg47 frozen/thawed, glucose total 21 mM", "result": "124 μIU insulin secreted/ml/10,000"}
    ]}
  ]
}
